# Assay: Average particle diameter of preparation (Zetasizer Nano ZS)
# Assay type: physicochemical
# Conditions: average particle diameter of cationic lipid/nucleic acid complex; Example 118 preparation: compound/PEG-DMPE Na/DSPC/cholesterol with apo-b siRNA
# Description: Preparations were produced using the compounds obtained in Examples 1 to 117, as follows.
# APO-B siRNA was used as the nucleic acid. APO-B siRNA suppresses expression of an apolipoprotein-B (hereinafter, “apo-b”) gene and has a sense strand with the base sequence 5′-GmUCAmUCACACmUGAAmUACCAAmU-3′ (the sugars attached to the bases appended with m are 2′-O-methyl-substituted riboses), and an antisense strand with the base sequence 5′-[…]-3′ (the 5′-end is phosphorylated). The sense strand and the antisense strand were obtained from Nippon EGT, GeneDesign, Inc., Invitrogen or Hokkaido System Science Co., Ltd., and annealed to prepare the nucleic acid (hereinafter, “apo-b siRNA”).
# A solution comprising the constituent components was prepared by dissolving each of the weighed samples in 90 vol % ethanol in 8.947/1.059/5.708/13.697 mmol/L [compounds 1 to 117 obtained in Examples 1 to 117/sodium 1,2-dimyristoyl-sn-glycero-3-phosphoethanolamine-N-(methoxy(polyethylene glycol)-2000) (PEG-DMPE Na,N-(carbonylmethoxypolyethylene glycol 2000)-1,2-dimyristoyl-sn-glycero-3-phosphoethanolamine sodium salt, NOF Corporation)/distearoylphosphatidyl choline (DSPC, 1,2-distearoyl-sn-glycero-3-phosphocholine, NOF Corporation)/cholesterol (Avanti Polar Lipids)]. Separately, apo-b siRNA/distilled water (24 mg/mL) was diluted with a Tris-EDTA buffer (200 mM Tris-HCl, 20 mM EDTA, Invitrogen) and a 20 mM citric acid buffer (pH 5.0) to prepare a 1.5 mg/mL apo-b siRNA aqueous solution (2 mM Tris-EDTA/20 mM citric acid buffer, pH 5.0).
# The resulting lipid solution was heated to 37° C., and a 100-μL portion was transferred to a preparation container. The apo-b siRNA aqueous solution (100 μL) was then added thereto while being stirred. Then, a 20 mM citric acid buffer (containing 300 mM NaCl, pH 6.0; 200 μL) was added to the lipid nucleic acid mixed suspension (200 μL) while being stirred. The siRNA concentration was brought to 10 μM by dropping a Dulbecco phosphate buffer (DPBS, Invitrogen; 662 μL), and preparations (compositions comprising compounds 1 to 117 and the nucleic acid) were obtained.
# The average particle diameter of the complex between the cationic lipis and the nucleic acid in each preparation was measured with a particle diameter measurement device (Malvern; Zetasizer Nano ZS).
row,SMILES,Particle diameter of Preparetion [nm]
1,"CCCCC/C=C\C/C=C\CCCCCCCCCCO[C@@H]1CNC[C@H]1OCCCCCCCCCC/C=C\C/C=C\CCCCC [Compound 8, (3R,4R)-3,4-bis((11Z,14Z)-Icos-11,14-dienyloxy)pyrrolidine]",143.8
2,"CCCCCCCC/C=C\CCCCCCCC(=O)O[C@@H]1CNC[C@H]1OC(=O)CCCCCCC/C=C\CCCCCCCC [Compound 9, (3R,4R)-Pyrrolidine-3,4-diyl di((Z)-octadec-9-enoate)]",141.9
3,"CCCCC/C=C\C/C=C\CCCCCCCCO[C@@H]1CN(C)C[C@H]1OCCCCCCCC/C=C\C/C=C\CCCCC [Compound 10, (3R,4R)-1-Methyl-3,4-bis((9Z,12Z)-octadec-9,12-dienyloxy)pyrrolidine]",153.9
4,"CCCCC/C=C\C/C=C\CCCCCCCCO[C@H]1CN(C)C[C@H]1OCCCCCCCC/C=C\C/C=C\CCCCC [Compound 11, (3R,4S)-1-Methyl-3,4-bis((9Z,12Z)-octadec-9,12-dienyloxy)pyrrolidine]",135.8
5,"CCCCCCCC/C=C\CCCCCCCCO[C@@H]1CN(C)C[C@H]1OCCCCCCCC/C=C\CCCCCCCC [Compound 12, (3R,4R)-1-Methyl-3,4-bis((Z)-octadec-9-enyloxy)pyrrolidine]",161.3
6,"CCCCCCCCCCCCCCO[C@@H]1CN(C)C[C@H]1OCCCCCCCCCCCCCC [Compound 13, (3R,4R)-1-Methyl-3,4-bis(tetradecyloxy)pyrrolidine]",150.2
7,"CCCCCC/C=C\CCCCCCCCO[C@@H]1CN(C)C[C@H]1OCCCCCCCC/C=C\CCCCCC [Compound 14, (3R,4R)-3,4-bis((Z)-Hexadec-9-enyloxy)-1-methylpyrrolidine]",139.3
8,"CCCCCCCCCCC/C=C\CCCCCO[C@@H]1CN(C)C[C@H]1OCCCCC/C=C\CCCCCCCCCCC [Compound 15, (3R,4R)-1-Methyl-3,4-bis((Z)-octadec-6-enyloxy)pyrrolidine]",139.1
9,"CCCCC/C=C\C/C=C\CCCCCCCCCCO[C@@H]1CN(C)C[C@H]1OCCCCCCCCCC/C=C\C/C=C\CCCCC [Compound 16, (3R,4R)-3,4-bis((11Z,14Z)-Icos-11,14-dienyloxy)-1-methylpyrrolidine]",143.2
10,"CCCCC/C=C\C/C=C\CCCCCCCCO[C@@H]1CN(CC)C[C@H]1OCCCCCCCC/C=C\C/C=C\CCCCC [Compound 17, (3R,4R)-1-Ethyl-3,4-bis((9Z,12Z)-octadec-9,12-dienyloxy)pyrrolidine]",142.6
11,"CCCCCCCC/C=C\CCCCCCCCO[C@@H]1CN(CC)C[C@H]1OCCCCCCCC/C=C\CCCCCCCC [Compound 18, (3R,4R)-1-Ethyl-3,4-bis((Z)-octadec-9-enyloxy)pyrrolidine]",146.4
12,"CCCCC/C=C\C/C=C\CCCCCCCC(=O)O[C@@H]1C[N+](C)(C)C[C@H]1OC(=O)CCCCCCC/C=C\C/C=C\CCCCC.[Cl-] [Compound 20, (3R,4R)-1,1-Dimethyl-3,4-bis((9Z,12Z)-octadec-9,12-dienoyloxy)pyrrolidinium chloride]",107.5
13,"CCCCC/C=C\C/C=C\CCCCCCCCO[C@H]1C[N+](C)(C)C[C@H]1OCCCCCCCC/C=C\C/C=C\CCCCC.[Cl-] [Compound 21, (3R,4,5)-1,1-Dimethyl-3,4-bis((9Z,12Z)-octadec-9,12-dienyloxy)pyrrolidinium chloride]",112.4
14,"CCCCCCCC/C=C\CCCCCCCC(=O)O[C@@H]1C[N+](C)(C)C[C@H]1OC(=O)CCCCCCC/C=C\CCCCCCCC.[Cl-] [Compound 23, (3R,4R)-1,1-Dimethyl-3,4-bis((Z)-octadec-9-enoyloxy)pyrrolidinium chloride]",108.7
15,"CCCCC/C=C\C/C=C\CCCCCCCCO[C@@H]1CN(CC(O)CO)C[C@H]1OCCCCCCCC/C=C\C/C=C\CCCCC (stereo partly drawn) [Compound 24, 3-((3R,4R)-3,4-bis((9Z,12Z)-Octadec-9,12-dienyloxy)pyrrolidin-1-yl) propane-1,2-diol]",160.7
16,"CCCCC/C=C\C/C=C\CCCCCCCCO[C@@H]1CN(C(=O)CN(C)C)C[C@H]1OCCCCCCCC/C=C\C/C=C\CCCCC [Compound 25, (3R,4R)-1-(2-(Dimethylamino)acetyl)-3,4-bis((9Z,12Z)-octadec-9,12-dienyloxy)pyrrolidine]",126.0
17,"CCCCC/C=C\C/C=C\CCCCCCCC(=O)O[C@@H]1CN(C(=O)CN(C)C)C[C@H]1OC(=O)CCCCCCC/C=C\C/C=C\CCCCC [Compound 26, (3R,4R)-1-(2-(Dimethylamino)acetyl)pyrrolidine-3,4-diyl di((9Z,12Z)-octadec-9,12-dienoate)]",133.9
18,"CCCCCCCC/C=C\CCCCCCCC(=O)O[C@@H]1CN(C(=O)CN(C)C)C[C@H]1OC(=O)CCCCCCC/C=C\CCCCCCCC [Compound 27, (3R,4R)-1-(2-(Dimethylamino)acetyl)pyrrolidine-3,4-diyl di((Z)-octadec-9-enoate)]",135.2
19,"CCCCC/C=C\C/C=C\CCCCCCCCO[C@@H]1CN(C(=O)CCN(C)C)C[C@H]1OCCCCCCCC/C=C\C/C=C\CCCCC [Compound 28, (3R,4R)-1-(3-(Dimethylamino)propanoyl)-3,4-bis((9Z,12Z)-octadec-9,12-dienyloxy)pyrrolidine]",132.2

# The remaining lines, values ahead:
row,Particle diameter of Preparetion [nm],SMILES
1,122.5,"CCCCC/C=C\C/C=C\CCCCCCCC(=O)O[C@@H]1CN(C(=O)CCN(C)C)C[C@H]1OC(=O)CCCCCCC/C=C\C/C=C\CCCCC [Compound 29, (3R,4R)-1-(3-(dimethylamino)propanoyl)pyrrolidine-3,4-diyl di((9Z,12Z)-octadec-9,12-dienoate)]"
2,132.7,"CCCCCCCC/C=C\CCCCCCCC(=O)O[C@@H]1CN(C(=O)CCN(C)C)C[C@H]1OC(=O)CCCCCCC/C=C\CCCCCCCC [Compound 30, (3R,4R)-1-(3-(Dimethylamino)propanoyl)pyrrolidine-3,4-diyl di((Z)-octadec-9-enoate)]"
3,100.7,"CCCCC/C=C\C/C=C\CCCCCCCCO[C@@H]1CN(C(=O)[C@@H](N)CCCCN)C[C@H]1OCCCCCCCC/C=C\C/C=C\CCCCC [Compound 31, (3R,4R)-1-((5)-2,6-Diaminohexanoyl)-3,4-bis((9Z,12Z)-octadec-9,12-dienyloxy)pyrrolidine]"
4,154.2,"CCCCC/C=C\C/C=C\CCCCCCCCOCCN(C)CCOCCCCCCCC/C=C\C/C=C\CCCCC [Compound 32, N-Methyl-N,N-bis(2-((9Z,12Z)-octadec-9,12-dienyloxy)ethyl)amine]"
5,152.1,"CCCCCCCC/C=C\CCCCCCCCOCCN(C)CCOCCCCCCCC/C=C\CCCCCCCC [Compound 33, N-Methyl-N,N-bis(2-((Z)-octadec-9-enyloxy)ethyl)amine]"
6,165.7,"CCCCCCCCCCCCCCOCCN(C)CCOCCCCCCCCCCCCCC [Compound 34, N-Methyl-N,N-bis(2-(tetradecyloxy)ethyl)amine]"
7,126.5,"CCCCCC/C=C\CCCCCCCCOCCN(C)CCOCCCCCCCC/C=C\CCCCCC [Compound 35, N-Methyl-N,N-bis(2-((Z)-hexadec-9-enyloxy)ethyl)amine]"
8,137.2,"CCCCCCCCCCC/C=C\CCCCCOCCN(C)CCOCCCCC/C=C\CCCCCCCCCCC [Compound 36, N-Methyl-N,N-bis(2-((Z)-octadec-6-enyloxy)ethyl)amine]"
9,151.3,"CCCCCCCCCCCCCCCCCCOCCN(C)CCOCCCCCCCCCCCCCCCCCC [Compound 37, N-Methyl-N,N-bis(2-(octadecyloxy)ethyl)amine]"
10,157.2,"CCCCCCCCCCCCCCCCO[C@@H]1CNC[C@H]1OCCCCCCCCCCCCCCCC [Compound 38, (3R,4R)-3,4-bis(Hexadecyloxy)pyrrolidine]"
11,444.5,"CCCCCCCCCCCCCCCCCCO[C@@H]1CNC[C@H]1OCCCCCCCCCCCCCCCCCC [Compound 39, (3R,4R)-3,4-bis(Octadecyloxy)pyrrolidine]"
12,133.8,"CCCC/C=C\CCCCCCCCO[C@@H]1CNC[C@H]1OCCCCCCCC/C=C\CCCC [Compound 40, (3R,4R)-3,4-bis((Z)-Tetradec-9-enyloxy)pyrrolidine]"
13,134.4,"CCCCCC/C=C\CCCCCCCCCCO[C@@H]1CNC[C@H]1OCCCCCCCCCC/C=C\CCCCCC [Compound 41, (3R,4R)-3,4-bis((Z)-Octadec-11-enyloxy)pyrrolidine]"

# From US20170349532A1, “CATIONIC LIPID” (Kyowa Hakko Kirin Co., Ltd., priority 2011, published 2017)
